Measured values: publication PMC6211260 (Journal of Enzyme Inhibition and Medicinal Chemistry, 2018)
Several values for one entry are separate records, joined by “and”; a condition that tells them apart may be missing. Identical values can stand only once.

What was measured:
Plasma stability = format: in vitro ADME; conditions: 37 °C, 10 µM
Description: About 10 µM of compound 2l was mixed with human plasma and rat plasma and the mixture was shaked at 37 °C for 30 min and 120 min. After each time interval, acetonitrile was added and the mixture was centrifugated (14000 rpm, 4 °C). The supernatant was injected into the LC-MS to detect the remaining amount of compound 2l.

JNK2 = biological target: T1, JNK2 (Homo sapiens, UniProt P45984); assay: In vitro kinase screening (Kinase HotSpot); format: biochemical
T1 construct: purchased Reaction Biology Corp
T1 sequence (P45984 whole entry): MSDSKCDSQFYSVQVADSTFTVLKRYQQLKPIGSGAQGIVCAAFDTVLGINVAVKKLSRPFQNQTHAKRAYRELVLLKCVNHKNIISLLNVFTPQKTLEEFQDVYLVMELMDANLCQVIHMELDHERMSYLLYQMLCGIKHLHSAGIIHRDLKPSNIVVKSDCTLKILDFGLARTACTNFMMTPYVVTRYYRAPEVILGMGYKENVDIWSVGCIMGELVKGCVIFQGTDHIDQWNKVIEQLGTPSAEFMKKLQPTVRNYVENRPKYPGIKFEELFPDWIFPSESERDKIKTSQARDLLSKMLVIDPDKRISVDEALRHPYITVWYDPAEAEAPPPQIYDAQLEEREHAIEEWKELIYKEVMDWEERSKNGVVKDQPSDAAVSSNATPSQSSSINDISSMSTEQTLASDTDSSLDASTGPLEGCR
Excerpt: (§1) To investigate the biological target of compound, Reaction Biology Corp. Kinase HotSpotSM service was used adopting standard assay protocol.

EGFR = biological target: T2, EGFR (Homo sapiens, UniProt P00533); assay: In vitro kinase screening (Kinase HotSpot); format: biochemical; conditions: single dose of 10 µM
T2 construct: purchased Reaction Biology Corp
Excerpt: as §1

BRAF (V600E) = biological target: T3, BRAF (V600E) (Homo sapiens, UniProt P15056, V600E); assay: In vitro kinase screening (Kinase HotSpot); format: biochemical
T3 construct: purchased Reaction Biology Corp
T3 sequence (P15056 whole entry V600E): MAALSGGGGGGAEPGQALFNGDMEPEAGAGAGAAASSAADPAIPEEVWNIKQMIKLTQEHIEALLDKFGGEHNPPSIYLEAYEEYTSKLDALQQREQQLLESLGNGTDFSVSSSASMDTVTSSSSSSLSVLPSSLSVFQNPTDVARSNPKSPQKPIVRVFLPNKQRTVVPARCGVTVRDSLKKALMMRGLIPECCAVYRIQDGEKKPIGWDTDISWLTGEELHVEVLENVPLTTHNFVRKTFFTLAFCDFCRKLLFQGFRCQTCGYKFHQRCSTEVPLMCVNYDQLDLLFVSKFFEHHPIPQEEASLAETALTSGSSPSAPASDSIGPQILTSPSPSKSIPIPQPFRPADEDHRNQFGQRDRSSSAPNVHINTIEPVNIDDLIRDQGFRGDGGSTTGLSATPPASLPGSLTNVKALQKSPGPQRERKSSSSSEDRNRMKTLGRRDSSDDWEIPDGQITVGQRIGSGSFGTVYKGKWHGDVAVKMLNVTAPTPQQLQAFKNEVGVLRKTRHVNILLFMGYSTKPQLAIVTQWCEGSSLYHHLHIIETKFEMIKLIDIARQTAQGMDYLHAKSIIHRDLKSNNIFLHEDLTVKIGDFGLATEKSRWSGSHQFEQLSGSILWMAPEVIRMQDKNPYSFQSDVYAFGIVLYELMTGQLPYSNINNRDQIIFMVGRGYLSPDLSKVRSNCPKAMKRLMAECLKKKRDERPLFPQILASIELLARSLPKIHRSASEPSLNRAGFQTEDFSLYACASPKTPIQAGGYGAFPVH
Excerpt: as §1

mTOR/FRAP1 = biological target: T4, mTOR/FRAP1 (Homo sapiens, UniProt P42345); assay: In vitro kinase screening (Kinase HotSpot); format: biochemical; conditions: single dose of 10 µM
T4 construct: purchased Reaction Biology Corp
Excerpt: as §1

ROS/ROS1 = biological target: T5, ROS/ROS1 (Homo sapiens, UniProt P08922); assay: In vitro kinase screening (Kinase HotSpot); format: biochemical; conditions: single dose of 10 µM
T5 construct: purchased Reaction Biology Corp
T5 sequence (P08922 28-2347): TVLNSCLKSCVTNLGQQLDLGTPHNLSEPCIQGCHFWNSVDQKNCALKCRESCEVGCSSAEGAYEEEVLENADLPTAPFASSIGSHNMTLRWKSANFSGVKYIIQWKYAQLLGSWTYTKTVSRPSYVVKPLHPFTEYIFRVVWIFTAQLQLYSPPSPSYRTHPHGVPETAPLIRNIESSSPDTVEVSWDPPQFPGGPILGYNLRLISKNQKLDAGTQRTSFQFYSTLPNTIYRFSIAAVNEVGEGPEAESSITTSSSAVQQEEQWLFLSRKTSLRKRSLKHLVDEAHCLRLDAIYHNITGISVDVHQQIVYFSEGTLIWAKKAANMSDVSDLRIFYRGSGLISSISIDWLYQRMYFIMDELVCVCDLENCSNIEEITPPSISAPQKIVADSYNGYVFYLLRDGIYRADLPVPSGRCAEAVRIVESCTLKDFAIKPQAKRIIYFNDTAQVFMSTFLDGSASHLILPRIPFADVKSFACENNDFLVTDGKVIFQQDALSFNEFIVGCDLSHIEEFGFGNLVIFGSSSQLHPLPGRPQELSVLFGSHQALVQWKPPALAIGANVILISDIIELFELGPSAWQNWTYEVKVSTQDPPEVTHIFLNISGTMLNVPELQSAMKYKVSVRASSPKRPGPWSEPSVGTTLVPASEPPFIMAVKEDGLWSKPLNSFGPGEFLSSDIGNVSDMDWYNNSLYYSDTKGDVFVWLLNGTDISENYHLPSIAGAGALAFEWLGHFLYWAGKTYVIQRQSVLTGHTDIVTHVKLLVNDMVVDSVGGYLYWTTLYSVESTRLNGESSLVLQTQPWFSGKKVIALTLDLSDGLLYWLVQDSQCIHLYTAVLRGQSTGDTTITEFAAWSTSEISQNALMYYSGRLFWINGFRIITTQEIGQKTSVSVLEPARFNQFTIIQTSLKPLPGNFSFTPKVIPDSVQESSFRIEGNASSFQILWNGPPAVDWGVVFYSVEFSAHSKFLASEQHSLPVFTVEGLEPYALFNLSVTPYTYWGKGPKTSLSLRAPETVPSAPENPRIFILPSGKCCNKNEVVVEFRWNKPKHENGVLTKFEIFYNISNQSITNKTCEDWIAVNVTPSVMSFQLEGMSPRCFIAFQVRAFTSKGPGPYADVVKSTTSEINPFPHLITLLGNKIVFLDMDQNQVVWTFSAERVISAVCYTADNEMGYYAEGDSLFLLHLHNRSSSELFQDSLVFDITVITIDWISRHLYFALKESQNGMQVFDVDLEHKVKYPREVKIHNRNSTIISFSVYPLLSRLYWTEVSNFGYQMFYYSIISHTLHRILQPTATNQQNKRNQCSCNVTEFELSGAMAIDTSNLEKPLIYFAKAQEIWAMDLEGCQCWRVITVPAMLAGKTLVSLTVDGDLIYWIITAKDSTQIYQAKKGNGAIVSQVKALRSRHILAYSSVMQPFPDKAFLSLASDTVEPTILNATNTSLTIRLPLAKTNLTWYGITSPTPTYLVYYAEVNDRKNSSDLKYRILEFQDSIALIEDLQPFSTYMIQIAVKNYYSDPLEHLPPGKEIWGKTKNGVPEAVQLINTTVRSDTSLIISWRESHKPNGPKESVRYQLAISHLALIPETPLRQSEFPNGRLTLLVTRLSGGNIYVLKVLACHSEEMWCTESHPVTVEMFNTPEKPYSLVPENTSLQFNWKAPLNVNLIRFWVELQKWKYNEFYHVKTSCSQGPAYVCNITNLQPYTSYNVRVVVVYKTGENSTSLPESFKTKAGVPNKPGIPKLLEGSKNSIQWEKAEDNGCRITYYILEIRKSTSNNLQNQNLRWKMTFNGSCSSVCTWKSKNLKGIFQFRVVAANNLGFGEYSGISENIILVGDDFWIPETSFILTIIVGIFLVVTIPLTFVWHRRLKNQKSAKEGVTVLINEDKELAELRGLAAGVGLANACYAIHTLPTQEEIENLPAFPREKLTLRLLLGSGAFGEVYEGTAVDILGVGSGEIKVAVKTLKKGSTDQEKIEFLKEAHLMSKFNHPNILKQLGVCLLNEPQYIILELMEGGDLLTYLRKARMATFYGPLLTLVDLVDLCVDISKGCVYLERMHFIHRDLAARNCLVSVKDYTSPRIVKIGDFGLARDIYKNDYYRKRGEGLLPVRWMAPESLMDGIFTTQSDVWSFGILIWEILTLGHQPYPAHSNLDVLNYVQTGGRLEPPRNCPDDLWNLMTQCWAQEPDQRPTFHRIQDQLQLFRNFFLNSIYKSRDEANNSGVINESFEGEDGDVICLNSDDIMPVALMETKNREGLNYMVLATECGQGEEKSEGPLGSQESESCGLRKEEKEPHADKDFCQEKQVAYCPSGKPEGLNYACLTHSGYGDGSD
Excerpt: as §1

JNK1 = biological target: T6, JNK1 (Homo sapiens, UniProt P45983); assay: In vitro kinase screening (Kinase HotSpot); format: biochemical
T6 construct: purchased Reaction Biology Corp
T6 sequence (P45983 whole entry): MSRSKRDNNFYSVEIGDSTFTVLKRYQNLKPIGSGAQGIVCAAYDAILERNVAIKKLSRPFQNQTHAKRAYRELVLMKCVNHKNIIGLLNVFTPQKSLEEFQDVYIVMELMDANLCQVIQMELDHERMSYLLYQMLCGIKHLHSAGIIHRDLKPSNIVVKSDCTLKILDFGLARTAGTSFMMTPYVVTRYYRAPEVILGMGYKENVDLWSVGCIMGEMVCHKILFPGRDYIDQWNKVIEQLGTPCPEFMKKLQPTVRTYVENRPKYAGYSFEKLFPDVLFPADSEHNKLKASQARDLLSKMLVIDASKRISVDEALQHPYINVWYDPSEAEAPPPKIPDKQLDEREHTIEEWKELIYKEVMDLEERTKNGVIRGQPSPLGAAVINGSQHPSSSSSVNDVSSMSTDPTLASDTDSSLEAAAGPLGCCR
Excerpt: as §1

P38a/MAPK14 = biological target: T7, P38a/MAPK14 (Homo sapiens, UniProt Q16539); assay: In vitro kinase screening (Kinase HotSpot); format: biochemical
T7 construct: purchased Reaction Biology Corp
T7 sequence (Q16539 whole entry): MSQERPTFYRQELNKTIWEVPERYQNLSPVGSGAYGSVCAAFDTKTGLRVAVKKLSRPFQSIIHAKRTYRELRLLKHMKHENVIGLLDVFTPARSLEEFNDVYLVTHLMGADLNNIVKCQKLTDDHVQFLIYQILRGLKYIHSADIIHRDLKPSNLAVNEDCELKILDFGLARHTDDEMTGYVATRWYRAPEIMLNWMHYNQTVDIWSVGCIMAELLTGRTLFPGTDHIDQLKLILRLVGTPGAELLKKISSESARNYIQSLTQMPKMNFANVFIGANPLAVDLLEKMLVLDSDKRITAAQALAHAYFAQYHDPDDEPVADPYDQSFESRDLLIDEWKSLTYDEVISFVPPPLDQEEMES
Excerpt: as §1

FMS = biological target: T8, FMS (Homo sapiens, UniProt P07333); assay: In vitro kinase screening (Kinase HotSpot); format: biochemical; conditions: single dose of 10 µM
T8 construct: purchased Reaction Biology Corp
Excerpt: as §1

BRAF = biological target: T9, BRAF (Homo sapiens, UniProt P15056); assay: In vitro kinase screening (Kinase HotSpot); format: biochemical
T9 construct: purchased Reaction Biology Corp
T9 sequence (P15056 whole entry): as the sequence (P15056 whole entry V600E) above, with E600V counted along it
Excerpt: as §1

ERK1 = biological target: T10, ERK1 (Homo sapiens, UniProt P27361); assay: In vitro kinase screening (Kinase HotSpot); format: biochemical; conditions: single dose of 10 µM
T10 construct: purchased Reaction Biology Corp
Excerpt: as §1

JNK3 = biological target: T11, JNK3 (Homo sapiens, UniProt P53779); assay: In vitro kinase screening (Kinase HotSpot); format: biochemical; conditions: single dose of 10 µM
T11 construct: purchased Reaction Biology Corp
Excerpt: as §1

KDR/VEGFR2 = biological target: T12, KDR/VEGFR2 (Homo sapiens, UniProt P35968); assay: In vitro kinase screening (Kinase HotSpot); format: biochemical; conditions: single dose of 10 µM
T12 construct: purchased Reaction Biology Corp
Excerpt: as §1

ABL1 (T315I) = biological target: T13, ABL1 (T315I) (Homo sapiens, UniProt P00519, T315I); assay: In vitro kinase screening (Kinase HotSpot); format: biochemical; conditions: single dose of 10 µM
T13 construct: purchased Reaction Biology Corp
Excerpt: as §1

IKKb/IKBKB = biological target: T14, IKKb/IKBKB (Homo sapiens, UniProt O14920); assay: In vitro kinase screening (Kinase HotSpot); format: biochemical; conditions: single dose of 10 µM
T14 construct: purchased Reaction Biology Corp
T14 sequence (O14920 1-756): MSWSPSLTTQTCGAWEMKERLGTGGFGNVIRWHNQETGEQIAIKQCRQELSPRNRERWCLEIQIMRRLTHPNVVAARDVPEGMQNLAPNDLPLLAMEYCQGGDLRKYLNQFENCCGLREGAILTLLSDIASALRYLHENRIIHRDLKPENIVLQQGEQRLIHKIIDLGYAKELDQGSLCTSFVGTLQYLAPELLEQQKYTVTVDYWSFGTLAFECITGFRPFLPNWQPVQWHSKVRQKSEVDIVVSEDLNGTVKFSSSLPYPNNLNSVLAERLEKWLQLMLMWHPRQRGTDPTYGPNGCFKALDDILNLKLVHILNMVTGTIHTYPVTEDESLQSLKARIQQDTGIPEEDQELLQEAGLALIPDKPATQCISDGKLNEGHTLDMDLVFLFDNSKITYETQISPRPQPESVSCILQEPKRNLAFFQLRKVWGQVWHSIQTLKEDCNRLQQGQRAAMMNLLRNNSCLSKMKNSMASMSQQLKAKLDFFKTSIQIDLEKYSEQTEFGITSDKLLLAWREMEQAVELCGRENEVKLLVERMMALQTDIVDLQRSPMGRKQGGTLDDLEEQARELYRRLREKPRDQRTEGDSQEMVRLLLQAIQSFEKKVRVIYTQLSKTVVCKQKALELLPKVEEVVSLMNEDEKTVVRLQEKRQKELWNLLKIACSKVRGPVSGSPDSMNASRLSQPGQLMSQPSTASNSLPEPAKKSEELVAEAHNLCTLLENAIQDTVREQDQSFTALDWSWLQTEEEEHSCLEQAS
Excerpt: as §1

ERK2/MAPK1 = biological target: T15, ERK2/MAPK1 (Homo sapiens, UniProt P28482); assay: In vitro kinase screening (Kinase HotSpot); format: biochemical; conditions: single dose of 10 µM
T15 construct: purchased Reaction Biology Corp
Excerpt: as §1

GSK3b = biological target: T16, GSK3b (Homo sapiens, UniProt P49841); assay: In vitro kinase screening (Kinase HotSpot); format: biochemical; conditions: single dose of 10 µM, 10 µM
T16 construct: purchased Reaction Biology Corp
Excerpt: as §1

CDK2/cyclin E = biological target: T17, CDK2/cyclin E (Homo sapiens, UniProt P24941); assay: In vitro kinase screening (Kinase HotSpot); format: biochemical; conditions: single dose of 10 µM
T17 construct: purchased Reaction Biology Corp
Excerpt: as §1

MEK2 = biological target: T18, MEK2 (Homo sapiens, UniProt P36507); assay: In vitro kinase screening (Kinase HotSpot); format: biochemical; conditions: single dose of 10 µM
T18 construct: purchased Reaction Biology Corp
Excerpt: as §1

MEK1 = biological target: T19, MEK1 (Homo sapiens, UniProt Q02750); assay: In vitro kinase screening (Kinase HotSpot); format: biochemical; conditions: single dose of 10 µM
T19 construct: purchased Reaction Biology Corp
T19 sequence (Q02750 whole entry): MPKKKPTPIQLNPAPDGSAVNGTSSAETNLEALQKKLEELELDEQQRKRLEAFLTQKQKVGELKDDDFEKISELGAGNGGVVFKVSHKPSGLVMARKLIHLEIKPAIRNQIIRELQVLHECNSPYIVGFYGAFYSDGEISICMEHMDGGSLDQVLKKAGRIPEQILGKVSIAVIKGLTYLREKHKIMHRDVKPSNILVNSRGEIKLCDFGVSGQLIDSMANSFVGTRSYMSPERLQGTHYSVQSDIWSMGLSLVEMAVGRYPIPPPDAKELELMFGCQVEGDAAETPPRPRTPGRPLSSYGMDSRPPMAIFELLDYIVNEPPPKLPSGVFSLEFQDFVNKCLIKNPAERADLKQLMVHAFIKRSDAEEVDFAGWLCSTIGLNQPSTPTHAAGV
Excerpt: as §1

## O=S(=O)(NCCCNc1cc(-c2cn(-c3ccccc3)nc2-c2cccc(O)c2)ccn1)c1ccc(Cl)cc1 [Compound 2l, 4-Chloro-N-(3-((4-(3-(3-hydroxyphenyl)-1-phenyl-1H-pyrazol-4-yl)pyridin-2-yl)amino)propyl) benzenesulfonamide]
Plasma stability; Human plasma, 30 min
  Plasma stability, remaining unchanged: 100%
Plasma stability; Human plasma, 30 min, listed as 2 l
  Plasma stability, remaining unchanged: 100%
Plasma stability; Human plasma, 120 min
  Plasma stability, remaining unchanged: 95.3%
Plasma stability; Human plasma, 120 min, listed as 2 l
  Plasma stability, remaining unchanged: 95.3%
Plasma stability; Rat plasma, 30 min
  Plasma stability, remaining unchanged: 100%
Plasma stability; Rat plasma, 120 min
  Plasma stability, remaining unchanged: 100%
JNK2
  IC50: 360 ± 70 nM
JNK2; single dose of 10 µM, 10 µM
  Inhibition %: 98.47% and 98.49 ± 0.02%
EGFR
  Inhibition %: 11.74 ± 4.78%
BRAF (V600E); BRAF(V600E)
  IC50: 1160 ± 40 nM
BRAF (V600E); single dose of 10 µM, BRAF (V599E) in Table 6, BRAF (V600E) in text
  Inhibition %: 93.67 ± 0.47%
mTOR/FRAP1
  Inhibition %: 0.72 ± 0.32%
ROS/ROS1
  Inhibition %: 24.03 ± 0.51%
JNK1
  IC50: 350 ± 40 nM
JNK1; single dose of 10 µM, 10 µM
  Inhibition %: 99.02% and 99.05 ± 0.03%
P38a/MAPK14; MAPK14
  IC50: 1130 ± 90 nM
P38a/MAPK14; single dose of 10 µM, P38a/MAPK14
  Inhibition %: 86.54 ± 0.61%
FMS
  Inhibition %: 24.24 ± 1.14%
BRAF
  IC50: 4870 ± 70 nM
BRAF; single dose of 10 µM
  Inhibition %: 72.56 ± 0.27%
ERK1
  Inhibition %: 13.07 ± 0.93%
JNK3
  Inhibition %: 89.50 ± 0.03%
KDR/VEGFR2
  Inhibition %: 10.05 ± 0.10%
ABL1 (T315I)
  Inhibition %: –10.98 ± 0.40%
IKKb/IKBKB
  Inhibition %: −2.94 ± 0.17%
ERK2/MAPK1
  Inhibition %: 22.21 ± 0.41%
GSK3b
  Inhibition %: 75.45 ± 0.28%
CDK2/cyclin E
  Inhibition %: 22.92 ± 1.14%
MEK2
  Inhibition %: 11.73 ± 1.60%
MEK1
  Inhibition %: 0.56 ± 1.08%
